This is an account of results in publication PMC10291556 (Journal of Medicinal Chemistry, 2023).

The test system of data set [1] is HeLa cells. The data set can be described thus: Cellular accumulation of platinum (ICP-MS). In kind it is cell-based, human. The following applies: for cellular uptake 0.1 μM/24 h: 0.1 μM complex; for cellular uptake 1 μM/6 h: 1 μM complex; for cellular uptake 10 μM/6 h: 10 μM complex. The method, then:
Briefly, 3 × 10^6 cells were seeded in 100 mm culture dishes and grown overnight. The cells were exposed to the tested complexes at indicated concentrations for indicated periods. […] The pellets were digested using the microwave acid (HCl) digestion system (CEM Mars). The platinum quantity taken up by the cells was determined by inductively coupled plasma mass spectrometry (ICP–MS). All experiments were performed in triplicate.

Data set [2] has as its system MRC-5. Kind of data set: MTT assay in non-cancerous fibroblasts, 72 h. In kind it is cell-based. The settings on record: non-cancerous human fibroblasts, 72 h incubation, mean ± SD. The method, then:
Cells were treated with the tested compounds in a final volume of 200 μL/well. […] Calbiochem, Darmstadt, Germany) was added, and the cells were incubated for an additional 2–4 h. The medium was removed, and the insoluble formazan product was dissolved in 100 μL/well DMSO. […] The read values were converted to the percentage of control. […] All experiments were made in triplicate.
A general note: Formazan colour is commonly taken as a measure of viable cells.

Data set [3] in a line: Partition coefficient, shake-flask method. In kind it is physicochemical. The following applies: octanol/water. The method, then:
The “shake flask” method was used to measure the partition coefficients (P) of platinum compounds. The compounds were dissolved in octanol-saturated water (OSW) containing 200 mM NaCl. […] After careful separation of the layers with a fine-tip pipet, the Pt content in individual phases was determined by flameless atomic absorption spectrometry. The partition coefficients were calculated as the concentration ratio of the compound in the octanol layer to that in the aqueous layer, log P = log([Pt]WSO/[Pt]OSW).

For data set [4], the system named is HeLa cells. The data set can be described thus: Mitochondrial membrane potential (TMRE, flow cytometry). In kind it is cell-based, human. The following applies: 10× IC50, 1 h, vs untreated control. As for the experimental part: Figure 4 Changes in the mitochondrial membrane potential Δψm in HeLa cells. The cells were treated with Pt compounds at the concentrations corresponding to 10× IC50 for 1 h and subsequently stained with TMRE. The fluorescence was measured by flow cytometry. Data represents mean ± SD from three independent experiments, *p < 0.01.
HeLa cells were seeded (6-well plates, 3 × 10^5 cells/well), grown overnight, and then treated with the tested compounds for 1 h. The medium was removed, and a fresh medium containing TMRE (Thermo Fisher Scientific) at a final concentration of […] in 500 μL was added. The cells were incubated for 30 min at 37 °C and then harvested using trypsin. TMRE fluorescence was measured with a fluorescence-activated cell sorting (FACS) Verse flow cytometer (Becton Dickinson), and the data were analyzed using the ModFit LT 4.1 (Verity Software House) software. The experiment was performed in triplicate.
(A flow cytometer gives signals particle by particle.)

Data set [5] concerns COX-2 in HeLa cells. Kind of data set: Western blotting of COX-2. In kind it is cell-based, human. The settings on record: 24 h, 1×, 3× IC50, Western blot. As for the experimental part:
(B) Quantitative evaluation of Western blotting data; the relative expression of COX-2 normalized to GAPDH. Data represents the mean ± SD of two experiments. The stars indicate the statistical significance of difference vs control determined with the Student t-test (*p < 0.05, **p < 0.01, ***p < 0.001).
HeLa cells were seeded in 60 mm dishes at a density of 3 × 10^5 cells/dish and cultured for 20 h. The cells were then treated with the tested compounds at concentrations indicated in the text. After 24 h of treatment, the cells were scraped, washed, and pelleted. […] 4–20% SDS-PAGE (sodium dodecyl sulfate-polyacrylamide gel electrophoresis) (Mini-PROTEAN TGX Precast Gel) was used to resolve the proteins. After transferring to the polyvinylidene fluoride membrane, the proteins were detected using appropriate antibodies: anti-GAPDH antibody (mouse, Sigma-Aldrich), Anti-COX-2 (rabbit, Abcam), Anti-α-, β-, or γ-tubulin (all rabbit, Abcam), Anti-β-actin (mouse, Abcam), Goat Anti-Rabbit IgG(HRP) (Abcam; HRP = horseradish peroxidase), and Goat Anti-Mouse IgG(HRP) (ThermoFisher Scientific). SignalFire ECL Reagent (A + B) was used as a substrate for HRP, and the luminescence was recorded with Amersham Imager 680. The densities in the images were assessed with the Aida image analysis software.

The subject of data set [6] is DNA isolated from HeLa cells. The data set can be described thus: Pt associated with DNA isolated from treated HeLa cells. The following applies: 1 µM compound, 6 h, mean ± SD. In kind it is cell-based, human. The source says: page 16: Table S1: […] concentration of tested compounds for 6 ha. […] Figure S19: A. Representative histograms obtained by flow cytometric analysis of calreticulin exposure in HeLa cells treated with indicated compounds. B. An example of gating DAPI negative population. Only DAPI-negative cells were taken for the evaluation.

Data set [7] concerns HeLa cells. Kind of data set: Wound healing assay. Type of data set: cell-based, human. The following applies: 24 h, multiples of IC50,72h. The method, then:
Figure 7 (A–E) Wound healing assay. The monolayer of HeLa cells was scratched with a 10 μL tip, and a starving medium containing the tested complexes was added. The shots were taken at times 0 and 24 h. (A) Control, non-treated cells; (B) cells treated with complex 3; (C) cells treated with complex 4. […] (E) Evaluation of wound healing assay. Bars represent gap size vs. Control (100%), following a 24 h incubation with the investigated compounds. Light gray bars: complex 3; dark gray bars: complex 4; black bar: complex 2. (F) Re-adhesion assay. […] Following trypsinization, the cells were resuspended in Dulbecco’s modified Eagle medium (DMEM), counted, left to reconstitute adhesive membrane proteins for 30 min, and re-seeded at the density of 3× 10^4 cells/100 μL/well. After 30 min of incubation at 37 °C, the re-adhesion activity was determined as described in the Experimental Section. Data represents mean ± SD, n = 8; *p < 0.05, **p < 0.01, ***p < 0.001.
HeLa cells were grown close to confluence in 6-well plates in a complete medium, and then the medium was replaced with a serum-free medium [supplemented with 0.1% bovine serum albumin (BSA)], and the cells were incubated for an additional 24 h. The HeLa monolayers were scratched with a 10 μL pipet tip, and the cells were washed twice with PBS to remove peeled cells and treated with tested compounds at indicated concentrations. The scratched areas were shot immediately after the complex addition and then after 24 h with a Canon EOS 1200D camera attached to an Olympus CKX41 inverted microscope with a 10×/0.25 phase contrast objective. Digital images were taken by the QuickPHOTO MICRO 3.1 program (PROMICRA, Prague, Czech Republic) and processed with the TScratch analysis software (ETH Zürich, Switzerland). The cell’s ability to migrate into the open area was expressed as a percentage of control.

Data set [8] concerns A2780cisR. The data set can be described thus: MTT antiproliferative assay, 72 h. In kind it is cell-based, human. The settings on record: MTT, 72 h incubation, mean ± SD; read-out: IC50 A2780cisR. As for the experimental part:
(§1) Cells were treated with the tested compounds in a final volume of 200 μL/well. […] Calbiochem, Darmstadt, Germany) was added, and the cells were incubated for an additional 2–4 h. The medium was removed, and the insoluble formazan product was dissolved in 100 μL/well DMSO. The absorbance was read at 570 nm (vs 620 nm) using an Absorbance Reader (SUNRISE TECAN SCHOELLER). The read values were converted to the percentage of control. […] All experiments were made in triplicate.

The subject of data set [9] is A2780. The data set can be described thus: MTT antiproliferative assay, 72 h. Type of data set: cell-based, human. The following applies: MTT, 72 h incubation, mean ± SD; read-out: IC50 A2780. The method, then: as §1
In data set [10] the test system is MDA-MB-231. Kind of data set: MTT antiproliferative assay, 72 h. The settings on record: MTT, 72 h incubation, mean ± SD; read-out: IC50 MDA-MB-231. Type of data set: cell-based, human. As for the experimental part:
as §1

The test system of data set [11] is HCT-116. The data set can be described thus: MTT antiproliferative assay, 72 h. In kind it is cell-based, human. The following applies: MTT, 72 h incubation, mean ± SD; read-out: IC50 HCT-116. The method, then: as §1
Data set [12] deals with MCF-7. The data set can be described thus: MTT antiproliferative assay, 72 h. In kind it is cell-based, human. The following applies: MTT, 72 h incubation, mean ± SD; read-out: IC50 MCF-7. As for the experimental part:
as §1

The test system of data set [13] is HeLa. Kind of data set: MTT antiproliferative assay, 72 h. Type of data set: cell-based, human. The settings on record: MTT, 72 h incubation, mean ± SD; read-out: IC50 HeLa. As for the experimental part:
as §1

For data set [14], the system named is HeLa cells. Kind of data set: HMGB1 release (ELISA). In kind it is cell-based, human. The settings on record: 1×, 2×, 3× IC50, 20 h. Background: ELISA stands for enzyme-linked immunosorbent assay.
Method: (B) Extracellular level of HMGB1. […] The data in panels A, B, and C are shown as a mean of 4–5 measurements ± SD. Statistical significance from untreated control was determined with the Student t-test (*p ≤ 0.05, **p ≤ 0.01, and ^#p ≤ 0.001).
HeLa cells were seeded in 24-well plates at a density of 10^4 cells/well and grown overnight. The medium was removed, and a fresh medium (DMEM, 1% BSA, no FBS) containing indicated concentrations of tested complexes was added (300 μL). Following a 20 h treatment, medium samples were withdrawn, and the HMGB1 content was determined using an HMGB1 ELISA Kit (IBL international) following the instructions for use. Cell counts in corresponding wells were determined using Automated Cell Counter (Bio-Rad). HMGB1 concentrations were normalized to cell counts and to the value of untreated control. The experiment was performed twice with duplicate readings.
Data set [15] concerns HeLa cells. Kind of data set: Calreticulin exposure (flow cytometry). Type of data set: cell-based, human. The following applies: 3× IC50, 16–18 h, DAPI-negative cells.
Method: (C) Calreticulin exposure to the cell surface. […] The surface calreticulin exposure was determined in 4′,6-diamidino-2-phenylindole dihydrochloride (DAPI)-negative cell population. Relative fluorescence intensity was calculated as the median fluorescence of the population of treated cells/median fluorescence of untreated control cells.
Following the treatment, the cells were harvested (trypsin), washed with FACS buffer (PBS, BSA 1%, and FBS 2%), and incubated with Alexa Fluor 488 Anti-Calreticulin antibody for 40 min at 4 °C. The buffer was removed (CFG, 300 g, 3 min) and replaced with FACS buffer containing DAPI (1 μg mL^–1, 20 min), and the cells were analyzed with flow cytometry (BD FACS Verse) and FCS Express 6 (DeNovo Software, Glendale, CA). Calreticulin fluorescence histograms were analyzed in the DAPI-negative (intact membrane) cell population.
Data set [16] concerns COX in HeLa cells. Kind of data set: COX activity assay (kit) in treated cells. Type of data set: cell-based, human. The settings on record: 24 h, 1× IC50,72h, vs untreated control. As for the experimental part:
The results are expressed relative to the COX activity of untreated control.
HeLa cells were seeded in 6-well plates at a density of 10^5 cells/well and incubated overnight. The cells were treated with the tested compounds at concentrations corresponding to 1× IC50. Following a 24 h treatment, the cells were lyzed with radioimmunoprecipitation assay (RIPA) buffer supplemented with proteinase inhibitors on ice for 10 min. The extracts were cleared with centrifugation (12,000g/5 min), and protein content was determined using Bradford assay. COX activity was determined with a COX Activity Assay Kit (Abcam). 6 μg of protein was used in the reaction. The experiment was set up according to the manufacturer’s instructions. The fluorescence (Ex/Em 535/587 nm) was read in a kinetic mode, and the COX inhibition was expressed as a percentage of the activity of the untreated control.

The test system of data set [17] is HeLa cells. Kind of data set: ATP secretion. Type of data set: cell-based, human. The following applies: 1× and 3× IC50, 24 h.
Method: (A) Extracellular ATP levels in HeLa cell supernatants.
HeLa cells were seeded in 24-well plates at a density of 10^4 cells/well, grown overnight, and then treated with the tested complexes for 24 h. Aliquots of culture medium samples were withdrawn, centrifugated (500g, 3 min), and processed with ATP Bioluminescence Assay Kit CLS II, Roche. Briefly, 50 μL of cell-free medium samples were added to a 96-well flat white plate, and an equal volume of luciferase reagent was added. The luminescence was measured immediately on a plate reader (SPARK, Tecan). The blank (no ATP) was subtracted from the raw data. ATP concentrations were obtained from the standard curve and normalized to cell counts and control. The data are shown as MEAN of 4–5 independent measurements.

As for `Cc1c(C)c2c3c4c1=CC=C[N]4[Pt]([Cl])([Cl])[N]3C=CC=2.N[C@H]1CCCC[C@@H]1N` [complex 2, Pt^IV56MeSSCl2], the “cellular uptake 0.1 μM/24 h” value in [1] is reported as 2.2 ± 0.2 ng Pt/10^6 cells. Besides, the “cellular uptake 1 μM/6 h” value in data set [1] is recorded as 6.2 ± 0.3 ng Pt/10^6 cells. The “cellular uptake 10 μM/6 h” value in data set [1] came to 47 ± 2 ng Pt/10^6 cells. Also, the IC50 (commonly the concentration at which inhibition is half-maximal) was 2.1 ± 0.4 µM in data set [2]; 0.4 ± 0.08 µM in data set [8]; 0.39 ± 0.01 µM in data set [9]; 1.5 ± 0.4 µM in [10]; 1.6 ± 0.4 µM in data set [11]; 5.9 ± 0.5 µM in [12]. The half-inhibitory concentration (IC50) in [13] worked out at 2.9 ± 0.7 µM. The “log P” value in data set [3] was “–2.1 ± 0.2”. Also, the “mitochondrial membrane potential Δψm (TMRE fluorescence)” value in data set [4] was “insignificant impact on the Δψm”. For the same molecule, the “intracellular level of COX-2 protein” value in data set [5] is “markedly less effective”. Further, the “amount of Pt associated with DNA” value in data set [6] amounted to 1.9 ± 0.1 pg Pt/µg DNA. For the same molecule, in [7], the “migration activity (wound closing)” value is on record as “less efficient in inhibting artificial wound closing”.
Take `N.N.[Cl][Pt][Cl]` [cisplatin, reference compound]: the “cellular uptake 0.1 μM/24 h” value in [1] amounted to 0.3 ± 0.1 ng Pt/10^6 cells. Further, the “cellular uptake 1 μM/6 h” value in data set [1] came out at 2.3 ± 0.3 ng Pt/10^6 cells. In data set [1], the “cellular uptake 10 μM/6 h” value is recorded as 10 ± 3 ng Pt/10^6 cells. Also, the IC50 in [2] was found to be 7.3 ± 0.9 µM; in data set [8] it was 20 ± 2 µM; in [9], 3.5 ± 0.6 µM; in [10] it was 22 ± 2 µM; in data set [11] it was 8 ± 1 µM; in [12], 14 ± 3 µM. Also, the IC50 in [13] is 15 ± 3 µM. In addition, the “amount of Pt associated with DNA” value in data set [6] amounted to 2.8 ± 0.2 pg Pt/µg DNA.
As for `NCCNC(=O)Cc1ccccc1Nc1c(Cl)cccc1Cl` [enDCF, diclofenac amide], the HMGB1 secretion result in data set [14] is reported as “effective as well”. Moreover, the 50% inhibitory concentration (IC50) in data set [2] amounted to 58 ± 6 µM; in data set [10], 32 ± 3 µM; in data set [11], 27 ± 4 µM; in data set [12] it was 37 ± 4 µM; in [13], 30 ± 2 µM. Besides, the externalization of calreticulin entry in [15] was “effective as well”. The “mitochondrial membrane potential Δψm (TMRE fluorescence)” value in data set [4] is reported as “The same effect”. The “inhibition of COX activity” value in [16] is on record as “Inhibition of COX activity was also observed”. The ATP secretion result in data set [17] is “effective as well”.
